Reference: ChEMBL document CHEMBL1201862, “PubChem BioAssay data set” (2004)
Calls of active or inactive are those of the source.

Assays:
Fatty acid synthase [1] = biological target: T1, Fatty acid synthase (Homo sapiens, UniProt P49327); experiment: inhibition of human FAS-TE enzyme activity – biochemical, endpoint fluorescence intensity, uHTS hits, dose response (AID 624327); type: functional;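 note: fluorescence from hydrolysis of an O-methyl fluorescein acyl ester substrate by the enzyme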
Fatty acid synthase [2] = biological target: T1, Fatty acid synthase; experiment: inhibition of human FAS-TE enzyme activity – biochemical, kinetic fluorescence intensity, dose response (AID 624326); type: functional;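 note: rate of fluorescence rise from hydrolysis of a fluorogenic O-methyl fluorescein ester substrate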
H9c2 = experiment: cells; type: functional, cell-based; conditions: Rattus norvegicus, H9c2, Myocardium;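 note: confirmatory concentration-response retest of ultra-high-throughput screening hits for modulation of myocardial damage; cell death induced by hydrogen peroxide oxidative stress; compound pretreatment for 60 min then peroxide exposure for 2 h; potency is for protecting the cells against peroxide damage rather than for killing them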
[3] = biological target: T2, Sentrin-specific protease 8 (Homo sapiens, UniProt Q96LD8); type: functional
T2 sequence (Q96LD8 whole entry): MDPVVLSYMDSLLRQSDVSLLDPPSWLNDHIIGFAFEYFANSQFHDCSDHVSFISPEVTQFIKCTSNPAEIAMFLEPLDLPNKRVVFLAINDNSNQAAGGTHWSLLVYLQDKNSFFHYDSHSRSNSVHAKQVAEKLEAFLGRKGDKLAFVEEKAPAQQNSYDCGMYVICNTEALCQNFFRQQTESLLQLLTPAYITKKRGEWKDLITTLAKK

[4] = biological target: T2, Sentrin-specific protease 8; type: functional; remark: listed apart in the source
Large T antigen = Large T antigen (Simian virus 40, UniProt P03070); type: functional, Betapolyomavirus macacae;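 note: Confirmatory-stage PubChem screen for compounds that inhibit SV40 T antigen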
cells = type: functional, cell-based
[5] = blockers of CRF-binding protein–CRF-R2 complex – cell-based, uHTS hits, 384-well, dose response (AID 651639); type: functional, Homo sapiens; conditions: read-out: IC50_Mean
[6] = biological target: T3, Corticotropin-releasing factor receptor 2/Corticotropin-releasing factor-binding protein (Homo sapiens, UniProt P24387+Q13324); experiment: activators of CRF receptor 2 with binding protein – uHTS hits, confirmation (AID 602473); type: functional; conditions: read-out: EC50_Mean
T3 sequence (Q13324 whole entry): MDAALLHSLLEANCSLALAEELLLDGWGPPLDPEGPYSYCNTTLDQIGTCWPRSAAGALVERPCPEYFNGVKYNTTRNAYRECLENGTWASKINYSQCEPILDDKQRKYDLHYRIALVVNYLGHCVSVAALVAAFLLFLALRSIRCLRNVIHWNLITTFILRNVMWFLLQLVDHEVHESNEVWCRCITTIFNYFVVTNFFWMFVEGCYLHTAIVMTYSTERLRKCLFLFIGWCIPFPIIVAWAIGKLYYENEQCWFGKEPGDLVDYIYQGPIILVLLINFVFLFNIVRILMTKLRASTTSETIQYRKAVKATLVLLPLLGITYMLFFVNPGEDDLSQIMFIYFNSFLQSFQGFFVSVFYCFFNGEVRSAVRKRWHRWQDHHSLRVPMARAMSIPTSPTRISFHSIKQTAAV
T3 sequence (P24387 whole entry): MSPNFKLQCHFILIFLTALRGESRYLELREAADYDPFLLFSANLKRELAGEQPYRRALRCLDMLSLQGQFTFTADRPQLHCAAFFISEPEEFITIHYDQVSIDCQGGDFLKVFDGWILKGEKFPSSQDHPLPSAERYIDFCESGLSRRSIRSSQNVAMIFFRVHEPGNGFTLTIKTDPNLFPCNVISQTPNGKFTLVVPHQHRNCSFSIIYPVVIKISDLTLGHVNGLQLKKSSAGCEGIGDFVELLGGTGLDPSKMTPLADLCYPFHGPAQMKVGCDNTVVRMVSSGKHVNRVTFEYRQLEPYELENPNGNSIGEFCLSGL

[7] = biological target: T3, Corticotropin-releasing factor receptor 2/Corticotropin-releasing factor-binding protein; experiment: Dose Response confirmation of uHTS hits for small molecule antagonists of the CRF-binding protein and CRF-R2 receptor complex.; type: functional; conditions: read-out: IC50_Mean
[8] = microbe, parasite or virus in culture; type: functional; conditions: Mycobacterium tuberculosis
[9] = biological target: T4, DNA repair protein RAD52 homolog (Homo sapiens, UniProt P43351); type: functional, biochemical
T4 sequence (P43351 whole entry): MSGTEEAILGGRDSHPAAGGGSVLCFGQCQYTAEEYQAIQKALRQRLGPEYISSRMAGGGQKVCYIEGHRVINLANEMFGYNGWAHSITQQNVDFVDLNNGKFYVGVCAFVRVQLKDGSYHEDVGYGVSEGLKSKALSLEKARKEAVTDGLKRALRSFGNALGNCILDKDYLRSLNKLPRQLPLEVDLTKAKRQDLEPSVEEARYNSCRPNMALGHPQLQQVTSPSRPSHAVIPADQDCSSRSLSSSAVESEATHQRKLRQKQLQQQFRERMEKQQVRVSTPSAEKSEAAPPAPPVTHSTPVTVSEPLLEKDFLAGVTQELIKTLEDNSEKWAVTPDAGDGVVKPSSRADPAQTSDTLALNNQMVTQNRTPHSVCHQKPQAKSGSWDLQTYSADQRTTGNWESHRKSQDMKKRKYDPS

T1 sequence (P49327 whole entry): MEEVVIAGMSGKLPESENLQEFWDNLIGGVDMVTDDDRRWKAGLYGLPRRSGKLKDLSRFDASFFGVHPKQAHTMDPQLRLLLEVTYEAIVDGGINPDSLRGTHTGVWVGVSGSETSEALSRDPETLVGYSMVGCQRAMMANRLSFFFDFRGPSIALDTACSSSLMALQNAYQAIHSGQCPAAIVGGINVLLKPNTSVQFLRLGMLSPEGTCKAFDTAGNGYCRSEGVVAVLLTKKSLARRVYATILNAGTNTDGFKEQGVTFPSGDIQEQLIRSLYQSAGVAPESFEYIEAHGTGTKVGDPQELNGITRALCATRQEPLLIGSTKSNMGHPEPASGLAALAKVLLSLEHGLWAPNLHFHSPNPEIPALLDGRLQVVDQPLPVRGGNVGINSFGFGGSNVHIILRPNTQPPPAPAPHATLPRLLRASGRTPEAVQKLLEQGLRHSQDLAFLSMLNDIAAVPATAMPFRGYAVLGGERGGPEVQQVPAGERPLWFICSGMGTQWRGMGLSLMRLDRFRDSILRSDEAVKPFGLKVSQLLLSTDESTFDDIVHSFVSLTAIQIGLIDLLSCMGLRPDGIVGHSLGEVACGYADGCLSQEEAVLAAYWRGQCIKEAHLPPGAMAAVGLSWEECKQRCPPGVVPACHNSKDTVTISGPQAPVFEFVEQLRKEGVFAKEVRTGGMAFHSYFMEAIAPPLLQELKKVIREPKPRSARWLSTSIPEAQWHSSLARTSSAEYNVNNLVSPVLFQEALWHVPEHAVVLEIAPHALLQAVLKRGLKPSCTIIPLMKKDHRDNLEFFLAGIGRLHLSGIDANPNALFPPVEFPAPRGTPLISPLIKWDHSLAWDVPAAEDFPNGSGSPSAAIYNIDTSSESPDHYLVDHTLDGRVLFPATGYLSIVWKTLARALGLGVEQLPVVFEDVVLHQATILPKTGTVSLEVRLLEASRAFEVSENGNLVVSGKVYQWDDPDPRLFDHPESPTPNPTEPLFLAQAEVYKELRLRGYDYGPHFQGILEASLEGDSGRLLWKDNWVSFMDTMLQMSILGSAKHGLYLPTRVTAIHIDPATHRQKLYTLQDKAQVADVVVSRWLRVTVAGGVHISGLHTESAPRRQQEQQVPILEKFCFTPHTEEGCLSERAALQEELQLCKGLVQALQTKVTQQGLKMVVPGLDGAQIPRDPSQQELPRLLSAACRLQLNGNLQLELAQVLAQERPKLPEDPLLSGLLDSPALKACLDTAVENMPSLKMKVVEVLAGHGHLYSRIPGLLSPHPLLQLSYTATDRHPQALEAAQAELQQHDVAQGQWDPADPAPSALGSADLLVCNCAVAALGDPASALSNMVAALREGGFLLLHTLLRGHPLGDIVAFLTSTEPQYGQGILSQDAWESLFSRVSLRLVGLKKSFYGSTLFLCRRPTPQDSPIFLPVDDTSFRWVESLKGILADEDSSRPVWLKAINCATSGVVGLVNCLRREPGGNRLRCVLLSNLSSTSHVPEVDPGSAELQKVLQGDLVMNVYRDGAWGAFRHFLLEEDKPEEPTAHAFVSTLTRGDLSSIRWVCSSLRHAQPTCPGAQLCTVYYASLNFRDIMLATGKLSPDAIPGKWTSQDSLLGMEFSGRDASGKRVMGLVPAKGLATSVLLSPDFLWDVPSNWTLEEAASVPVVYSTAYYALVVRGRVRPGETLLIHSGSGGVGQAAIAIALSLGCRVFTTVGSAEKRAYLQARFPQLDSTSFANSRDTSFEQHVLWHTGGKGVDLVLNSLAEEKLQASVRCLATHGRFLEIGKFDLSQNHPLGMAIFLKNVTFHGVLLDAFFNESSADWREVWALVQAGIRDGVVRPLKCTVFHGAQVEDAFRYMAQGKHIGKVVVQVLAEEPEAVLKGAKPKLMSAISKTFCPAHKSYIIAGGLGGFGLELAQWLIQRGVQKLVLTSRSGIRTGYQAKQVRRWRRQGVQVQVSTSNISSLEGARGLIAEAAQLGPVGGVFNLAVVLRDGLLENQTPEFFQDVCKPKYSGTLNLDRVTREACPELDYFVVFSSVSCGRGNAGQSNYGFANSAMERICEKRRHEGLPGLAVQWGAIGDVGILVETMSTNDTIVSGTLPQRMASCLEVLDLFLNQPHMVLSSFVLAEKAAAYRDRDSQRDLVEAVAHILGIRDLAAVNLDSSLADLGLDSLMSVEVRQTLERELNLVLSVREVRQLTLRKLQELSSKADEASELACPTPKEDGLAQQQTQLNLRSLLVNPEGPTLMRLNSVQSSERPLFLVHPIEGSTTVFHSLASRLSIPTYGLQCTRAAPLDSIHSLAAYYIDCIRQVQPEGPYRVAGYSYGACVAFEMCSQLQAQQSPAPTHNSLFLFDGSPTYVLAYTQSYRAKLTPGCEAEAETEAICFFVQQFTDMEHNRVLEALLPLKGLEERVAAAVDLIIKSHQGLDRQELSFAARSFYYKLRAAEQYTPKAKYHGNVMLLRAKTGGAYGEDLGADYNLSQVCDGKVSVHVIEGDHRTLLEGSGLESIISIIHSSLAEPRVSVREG
Large T antigen, sequence (P03070 whole entry): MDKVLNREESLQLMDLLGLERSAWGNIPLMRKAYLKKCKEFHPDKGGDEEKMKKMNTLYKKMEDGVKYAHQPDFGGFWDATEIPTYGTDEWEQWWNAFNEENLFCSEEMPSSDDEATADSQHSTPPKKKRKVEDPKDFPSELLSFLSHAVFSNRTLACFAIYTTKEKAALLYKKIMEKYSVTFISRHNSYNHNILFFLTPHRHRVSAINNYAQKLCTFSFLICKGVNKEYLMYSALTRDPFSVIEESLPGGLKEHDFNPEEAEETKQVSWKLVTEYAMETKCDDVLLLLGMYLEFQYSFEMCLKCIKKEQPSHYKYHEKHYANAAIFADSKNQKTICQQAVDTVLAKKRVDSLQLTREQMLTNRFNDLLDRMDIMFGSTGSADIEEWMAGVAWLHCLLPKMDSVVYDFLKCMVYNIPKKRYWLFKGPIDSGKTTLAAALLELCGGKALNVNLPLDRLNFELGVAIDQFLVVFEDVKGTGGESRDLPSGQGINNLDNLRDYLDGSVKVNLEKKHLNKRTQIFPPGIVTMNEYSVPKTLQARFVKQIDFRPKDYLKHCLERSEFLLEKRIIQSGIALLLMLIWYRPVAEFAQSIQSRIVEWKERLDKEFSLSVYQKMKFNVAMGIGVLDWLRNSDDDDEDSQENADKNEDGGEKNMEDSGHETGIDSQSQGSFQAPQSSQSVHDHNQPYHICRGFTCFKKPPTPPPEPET

In the case of `Cc1csc(N(C(=O)CCNC(=O)c2ccc([N+](=O)[O-])cc2)c2ccccc2)n1`, the IC50 (Fatty acid synthase [1]) is reported as 5.73 µM (active) and the IC50 (Fatty acid synthase [2]) is reported as 4.74 µM (active).

With `CC(=O)N1CCN(c2ccccc2NC(=O)c2ccc(-c3cccc([N+](=O)[O-])c3)o2)CC1` the IC50 (Fatty acid synthase [1]) was 8.81 µM (active), the IC50 (Fatty acid synthase [2]) was 12.1 µM (active) and the IC50 (H9c2) was > 79 µM (inactive).

For `COC(=O)c1ccc(C)cc1C1CN=NC12Cc1cc(C)ccc1C2=O` (centres undefined), the IC50 [3] was 13.9 µM (active) and the IC50 [4] was 20.9 µM (active).

With `COc1cccc(CNC(=O)COC(=O)c2cc([N+](=O)[O-])ccc2N2CCCC2)c1` the IC50 (Fatty acid synthase [1]) was 3.18 µM (active) and the IC50 (Fatty acid synthase [2]) was 1.23 µM (active).

With `CCOc1cc(CNc2ccc(N3CCN(C(C)=O)CC3)cc2)cc(Br)c1OC` the IC50 (Large T antigen) was 8.75 µM (active).

In the case of `CC(NC(=O)C12CC3CC(CC(O)(C3)C1)C2)c1ccc(Cl)cc1Cl` (centres undefined), the EC50 (cells) is reported as > 350 µM (not active).

For `Cc1ccc(S(=O)(=O)c2nnn3c2nc(N2CCOCC2)c2ccccc23)cc1C`, the IC50 [5] was 7.26 µM (active), the EC50 [6] was > 53 µM (inactive) and the IC50 [7] was 5.78 µM (active).

For `Cc1cc(OC(=O)c2cccs2)c2c3c(c(=O)oc2c1)CCCC3`, the CC50 [8] was > 40 µM (active), the IC50 [5] was > 20 µM (inactive) and the EC50 [6] was > 53 µM (inactive). The IC50 [7] was 16.4 µM (active).

In the case of `CC(C(=O)c1ccc(-c2ccccc2)cc1)[n+]1cccc(NC(=O)c2ccccc2)c1` (centres undefined), the AC50 [9] is reported as 19.1 µM (active).

In the case of `O=C(NC(=O)c1ccccc1O)c1ccc(C(F)(F)F)cc1`, the IC50 [5] is reported as 15 µM (active), the EC50 [6] is reported as 9.51 µM (active) and the IC50 [7] is reported as 4.31 µM (active).

For `OC(CN1CCNCC1)Cn1c2ccccc2c2ccccc21` (centres undefined), the AC50 [9] was 20.7 µM (active).

In the case of `O=C1NC(=S)N(C2CC2)C(=O)/C1=C/NNc1ccccc1`, the IC50 (Large T antigen) is reported as 8.87 µM (active).
